Results from ChEMBL document CHEMBL5126609, “Design, Synthesis, and Pharmacological Evaluation of Benzimidazolo-thiazoles as Potent CXCR3 Antagonists with Therapeutic Potential in Autoimmune Diseases: Discovery of ACT-672125” (J Med Chem, 2022).
pIC50: −log10 of the molar value. Converted amounts (≈) assume the structure as drawn. Each block holds one compound with its values, some of them ahead of it.

Experiments:
[1] = in vitro; conditions: rat
[2] = Clearance in Wistar rat at 2 mg/kg, po; conditions: in vivo
[3] = in vivo; conditions: Wistar, rat, po, 2 mg/kg
[4] = Unbound fraction in rat plasma by equilibrium based LC-MS/MS analysis
[5] = target: hERG (KCNH2) (Homo sapiens, UniProt Q12809); test: Inhibition of hERG expressed in CHO cells at 3 uM at -80 mV holding potential assessed as current block incubated for 3 mins by Qpatch clamp method relative to control
hERG (KCNH2), sequence (Q12809 whole entry): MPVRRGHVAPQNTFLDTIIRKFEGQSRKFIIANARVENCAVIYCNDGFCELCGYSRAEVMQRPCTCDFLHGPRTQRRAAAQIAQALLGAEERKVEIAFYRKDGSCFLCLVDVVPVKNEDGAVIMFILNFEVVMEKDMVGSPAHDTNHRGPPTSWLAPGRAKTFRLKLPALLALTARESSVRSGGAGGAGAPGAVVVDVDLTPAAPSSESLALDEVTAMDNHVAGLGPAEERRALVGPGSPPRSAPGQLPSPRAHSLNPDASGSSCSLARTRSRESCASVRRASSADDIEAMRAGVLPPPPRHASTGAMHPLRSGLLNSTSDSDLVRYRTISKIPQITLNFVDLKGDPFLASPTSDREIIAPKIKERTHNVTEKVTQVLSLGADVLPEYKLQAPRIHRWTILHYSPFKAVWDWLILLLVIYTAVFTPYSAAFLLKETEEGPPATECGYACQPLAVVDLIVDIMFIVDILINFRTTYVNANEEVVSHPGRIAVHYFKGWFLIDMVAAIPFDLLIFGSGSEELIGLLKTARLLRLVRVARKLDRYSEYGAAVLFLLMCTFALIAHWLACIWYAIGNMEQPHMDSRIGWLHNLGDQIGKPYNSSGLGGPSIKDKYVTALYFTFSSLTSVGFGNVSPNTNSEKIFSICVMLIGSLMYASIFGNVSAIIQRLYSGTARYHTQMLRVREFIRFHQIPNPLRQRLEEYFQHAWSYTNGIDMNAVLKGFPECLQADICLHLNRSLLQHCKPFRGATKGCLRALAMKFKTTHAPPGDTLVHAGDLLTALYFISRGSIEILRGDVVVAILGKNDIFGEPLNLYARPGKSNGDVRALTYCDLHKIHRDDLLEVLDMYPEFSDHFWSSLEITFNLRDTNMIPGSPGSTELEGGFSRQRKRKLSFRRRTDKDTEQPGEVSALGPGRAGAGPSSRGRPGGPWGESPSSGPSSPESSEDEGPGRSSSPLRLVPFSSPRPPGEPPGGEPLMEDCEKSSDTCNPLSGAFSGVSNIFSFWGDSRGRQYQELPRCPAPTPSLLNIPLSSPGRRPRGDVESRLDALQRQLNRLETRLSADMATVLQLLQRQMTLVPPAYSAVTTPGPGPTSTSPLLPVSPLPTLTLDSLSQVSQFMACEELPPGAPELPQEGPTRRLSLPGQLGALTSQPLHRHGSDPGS

[6] = in vitro; conditions: human
[7] = Solubility of the compound in FeSSIF; conditions: simulated gi fluid
[8] = target: T1, C-X-C chemokine receptor type 3 (Homo sapiens, UniProt P49682); test: Antagonist activity at human recombinant CXCR3 expressed in CHO-K1 cells measured after 10 mins in presence of CXCL10 by FLIPR analysis
T1 sequence (P49682 whole entry): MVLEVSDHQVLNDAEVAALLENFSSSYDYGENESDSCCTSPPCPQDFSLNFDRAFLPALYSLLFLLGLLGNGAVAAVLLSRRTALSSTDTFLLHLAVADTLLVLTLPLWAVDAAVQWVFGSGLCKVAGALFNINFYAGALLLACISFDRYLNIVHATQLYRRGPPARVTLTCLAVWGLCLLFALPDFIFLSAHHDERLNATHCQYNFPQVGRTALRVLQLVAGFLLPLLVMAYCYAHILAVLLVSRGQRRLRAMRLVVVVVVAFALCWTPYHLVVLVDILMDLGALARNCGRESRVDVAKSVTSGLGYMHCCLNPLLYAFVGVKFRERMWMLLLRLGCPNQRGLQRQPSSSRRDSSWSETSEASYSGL

[9] = in vivo; conditions: Wistar, rat, po, 2 mg/kg; remark: listed apart in the source
[10] = target: T1, C-X-C chemokine receptor type 3; test: Antagonist activity at human recombinant CXCR3 in human venous blood assessed as receptor internalization measured for 30 mins in presence of CXCL10 by flow cytometric analysis
[11] = in vivo; conditions: Wistar, rat, po, 2 mg/kg; remark: listed apart in the source
[12] = Half life in Wistar rat at 0.2 mg/kg, iv; conditions: in vivo
[13] = Clearance in dog relative to liver blood flow; assay type: ADME, Canis lupus familiaris; conditions: in vivo
[14] = Drug concentration in LPS-induced C57BL/6 mouse plasma at 100 mg/kg, po bid; assay type: ADME, organism-based; conditions: in vivo
[15] = Unbound fraction in dog liver; assay type: ADME, tissue-based, Canis lupus familiaris
[16] = Clearance in rat relative to liver blood flow; assay type: ADME; conditions: in vivo
[17] = in vivo; conditions: Balb/c, mouse, po, 10 mg/kg
[18] = in vivo; conditions: Balb/c, mouse, po, 10 mg/kg; remark: listed apart in the source
[19] = Toxicity in rat plasma assessed as increase in total bilirubin level at 300 mg/kg/day measured for 2 weeks; assay type: organism-based; conditions: in vivo, 336 h
[20] = Toxicity in rat plasma assessed as increase in direct bilirubin level at 300 mg/kg/day measured for 2 weeks; assay type: organism-based; conditions: in vivo, 336 h
[21] = Volume of distribution in rat; assay type: ADME; conditions: in vivo
[22] = target: 5-hydroxytryptamine receptor 2A (Homo sapiens, UniProt P28223); test: Antagonist activity at 5-HT2A receptor (unknown origin)
5-hydroxytryptamine receptor 2A, sequence (P28223 whole entry): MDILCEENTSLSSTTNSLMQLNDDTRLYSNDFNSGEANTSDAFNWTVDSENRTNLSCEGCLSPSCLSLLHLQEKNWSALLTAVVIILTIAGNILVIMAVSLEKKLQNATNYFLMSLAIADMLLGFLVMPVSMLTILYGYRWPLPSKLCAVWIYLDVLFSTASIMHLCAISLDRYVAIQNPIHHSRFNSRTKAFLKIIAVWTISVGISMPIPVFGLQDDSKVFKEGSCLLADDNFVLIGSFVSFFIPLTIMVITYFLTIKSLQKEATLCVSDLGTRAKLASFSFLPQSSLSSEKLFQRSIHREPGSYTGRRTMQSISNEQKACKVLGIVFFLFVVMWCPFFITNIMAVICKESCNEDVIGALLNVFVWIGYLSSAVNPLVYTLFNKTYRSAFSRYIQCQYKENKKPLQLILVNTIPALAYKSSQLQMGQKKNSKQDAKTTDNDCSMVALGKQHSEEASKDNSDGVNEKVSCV

[23] = Toxicity in cynomolgus monkey assessed as increase in total bilirubin level at 300 mg/kg/day measured for 7 days; assay type: organism-based, Macaca fascicularis; conditions: in vivo, time 7 day
[24] = Oral bioavailability in dog; assay type: ADME, organism-based, Canis lupus familiaris; conditions: in vivo
[25] = Mutagenicity in Salmonella typhimurium by Ames test; assay type: toxicity; conditions: salmonella enterica subsp. enterica serovar typhimurium
[26] = test system: Hepatocyte; test: Cytotoxicity in human hepatocyte measured up to 100 uM; assay type: toxicity, cell-based; conditions: hepatocytes
[27] = Drug concentration in LPS-induced C57BL/6 mouse plasma at 30 mg/kg, po bid; assay type: ADME, organism-based; conditions: in vivo
[28] = target: cGMP-specific 3',5'-cyclic phosphodiesterase (Homo sapiens, UniProt O76074); test: Antagonist activity at PDE5 (unknown origin)
[29] = in vivo; conditions: Balb/c, mouse, po, 10 mg/kg; remark: listed apart in the source
[30] = Unbound fraction in human liver; assay type: ADME, tissue-based
[31] = Half life in Wistar rat at 0.5 mg/kg, iv; conditions: in vivo
[32] = Volume of distribution at steady state in Wistar rat at 2 mg/kg, po; conditions: in vivo
[33] = in vitro; conditions: mouse
[34] = Toxicity in cynomolgus monkey assessed as increase in direct bilirubin level at 300 mg/kg/day measured for 7 days; assay type: organism-based, Macaca fascicularis; conditions: in vivo, time 7 day
[35] = Toxicity in […] assessed as histopathological changes in liver at 300 mg/kg/day measured for 2 weeks; assay type: organism-based; conditions: in vivo, 336 h
[36] = Unbound fraction in rat liver; assay type: ADME, tissue-based
[37] = Cardiotoxicity in guinea pig assessed as QTc prolongation at 10 mg/kg, iv measured for 20 mins; assay type: toxicity, organism-based, Cavia porcellus; conditions: in vivo
[38] = Free maximum concentration of drug in cynomolgus monkey at 300 mg/kg/day measured on day 7; assay type: ADME, organism-based, Macaca fascicularis; conditions: in vivo
[39] = Unbound fraction in mouse plasma by equilibrium based LC-MS/MS analysis
[40] = Oral bioavailability in rat; assay type: ADME, organism-based; conditions: in vivo
[41] = Cmax in rat plasma at 300 mg/kg/day measured on day 14; assay type: ADME, organism-based; design: dose 300 mg/kg/day
[42] = Drug concentration in LPS-induced C57BL/6 mouse plasma at 200 mg/kg, po bid; assay type: ADME, organism-based; conditions: in vivo
[43] = Toxicity in rat plasma assessed as increase in indirect bilirubin level at 300 mg/kg/day measured for 2 weeks; assay type: organism-based; conditions: in vivo, 336 h
[44] = Volume of distribution in dog; assay type: ADME, Canis lupus familiaris; conditions: in vivo
[45] = Toxicity in cynomolgus monkey assessed as increase in indirect bilirubin level at 300 mg/kg/day measured for 7 days; assay type: organism-based, Macaca fascicularis; conditions: in vivo, time 7 day
[46] = Solubility of the compound in FaSSIF; conditions: simulated gi fluid
[47] = Unbound fraction in human plasma by equilibrium based LC-MS/MS analysis
[48] = target: Voltage-gated inwardly rectifying potassium channel KCNH2 (Homo sapiens, UniProt Q12809); test: Inhibition of hERG by Qpatch-clamp method
Voltage-gated inwardly rectifying potassium channel KCNH2, sequence (Q12809 whole entry): as the sequence (Q12809 whole entry) above

[49] = Lipophilicity, log D of the compound at pH 7.4; conditions: buffer
[50] = Half life in Balb/c mouse at 1 mg/kg, iv; conditions: in vivo
[51] = Clearance in Balb/c mouse at 10 mg/kg, po; conditions: in vivo

microsomal CLint at 0.25 h, 1 µM ([1]; microsomes): 53 µL/min/mg
CL/F [2]: 49 mL/min/kg
Tmax [3]: 30 min
fraction unbound [4]: 0.042
microsomal CLint at 0.25 h, 1 µM ([6]; microsomes): 30 µL/min/mg
solubility [7]: 731 µg/mL (≈ 1250 µM)
pIC50 [8]: 8.49
AUC [9]: 196 ng·h/mL
pIC50 [10]: 6.84
bioavailability [11]: 29%
half-life [12]: 30 min
Compound: COc1cc2nc(-c3nc(C(F)(F)F)sc3N3CCN(C(=O)Cn4cnc5cccnc54)[C@H](C)C3)[nH]c2cc1OC
inhibition at 0.05 h, 3 µM [5]: 20%

CLH [13]: 11%
Cp [14]: 250 ng/mL
fraction unbound [15]: 0.106
CLH [16]: 10%
microsomal CLint at 0.25 h, 1 µM ([1]; liver microsomes): 47 µL/min/mg
Cmax [17]: 3140 ng/mL
AUC [18]: 6600 ng·h/mL
CL/F [2]: 14 mL/min/kg
Vd [21]: 1.1 L/kg
pIC50 [22]: 4.80
Tmax [3]: 15 min
bioavailability [24]: 57%
Cp [27]: 30 ng/mL
pIC50 [28]: 5.06
fraction unbound [4]: 0.029
Tmax [29]: 15 min
fraction unbound [30]: 0.038
half-life [31]: 72 min
Vdss [32]: 1 L/kg
microsomal CLint at 0.25 h, 1 µM ([33]; liver microsomes): 21 µL/min/mg
microsomal CLint at 0.25 h, 1 µM ([6]; liver microsomes): < 10 µL/min/mg
fraction unbound [36]: 0.029
fCmax [38]: 1.4 µM
fraction unbound [39]: 0.024
pIC50 [8]: 8.60
AUC [9]: 1160 ng·h/mL
bioavailability [40]: 48%
Cmax [41]: 3.5 µM
Cp [42]: 14630 ng/mL
pIC50 [10]: 6.62
bioavailability [11]: 0.5%
Vd [44]: 2.2 L/kg
Compound: Cc1nc(C)n(CC(=O)N2CCN(c3sc(C(F)(F)F)nc3-c3nc4ccc(-c5noc(C)n5)cc4[nH]3)C[C@H]2C)n1
Activity [19]: Toxic
Activity [20]: Toxic
Activity [23]: Toxic
Activity [25]: Non-Toxic
Activity [26]: Non-Toxic
Activity [34]: Toxic
Activity [35]: Non-Toxic
Activity [37]: Non-Toxic
Activity [43]: Toxic
Activity [45]: Toxic

solubility [46]: 13 µg/mL (≈ 24.7 µM)
microsomal CLint at 0.25 h, 1 µM ([1]; microsomes): 104 µL/min/mg
Cmax [17]: 27900 ng/mL
fraction unbound [47]: 0.023
fraction unbound [4]: 0.017
microsomal CLint at 0.25 h, 1 µM ([33]; microsomes): 104 µL/min/mg
microsomal CLint at 0.25 h, 1 µM ([6]; microsomes): 89 µL/min/mg
solubility [7]: 214 µg/mL (≈ 406 µM)
logD [49]: 3.9
half-life [50]: 13.2 min
fraction unbound [39]: 0.01
CL/F [51]: 41 mL/min/kg
Compound: C[C@@H]1CN(c2sc(C(F)(F)F)nc2-c2nc3ccccc3[nH]2)CCN1C(=O)Cn1cnc2cccnc21
inhibition at 0.05 h, 3 µM [5]: 70%
pIC50 [48]: 5.85
